Results taken from PubChem BioAssay AID330 (DTP/NCI, 2004).
Values joined by “and” are separate entries in the source; they are usually repeats but may differ in a detail not shown here. Equal values may be shown once. Toxic doses and inconclusive results are not listed. How the source made its calls: active means survival T/C of 150% or more; inactive means T/C below 125% in these data.

Test system: P388 leukemia ip, CD2F1 mice, survival T/C
Experiment: NCI In Vivo Anticancer Drug Screen. Data for tumor model P388 Leukemia (intraperitoneal) in CD2F1 (CDF1) mice
Conditions: endpoint: median survival time, higher = longer survival
Procedure, shortened: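 Mice carrying the transplanted tumor received test compound or vehicle. Survival was recorded in each group, and the value is the treated-group measurement divided by that of the vehicle-treated control group.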

[1] = dose: 50.0 mg/kg/injection, schedule: Q01DX005 (ip), vehicle: saline with Tween-80
[2] = dose: 100.0 mg/kg/injection, schedule: Q01DX005 (ip), vehicle: saline with Tween-80
[3] = dose: 200.0 mg/kg/injection, schedule: Q01DX005 (ip), vehicle: saline with Tween-80
[4] = dose: 50.0 mg/kg/injection, schedule: Q01DX009 (ip), vehicle: saline with Tween-80
[5] = dose: 100.0 mg/kg/injection, schedule: Q01DX009 (ip), vehicle: saline with Tween-80
[6] = dose: 100.0 mg/kg/injection, schedule: Q04DX003 (ip), vehicle: saline
[7] = dose: 200.0 mg/kg/injection, schedule: Q04DX003 (ip), vehicle: saline
[8] = dose: 50.0 mg/kg/injection, schedule: Q04DX003 (ip), vehicle: distilled water + Tween-80
[9] = dose: 100.0 mg/kg/injection, schedule: Q04DX003 (ip), vehicle: distilled water + Tween-80
[10] = dose: 50.0 mg/kg/injection, schedule: Q01DX005 (ip), vehicle: Klucel (hydroxypropylcellulose) (HPC)
[11] = dose: 100.0 mg/kg/injection, schedule: Q01DX005 (ip), vehicle: Klucel (hydroxypropylcellulose) (HPC)
[12] = dose: 200.0 mg/kg/injection, schedule: Q01DX005 (ip), vehicle: Klucel (hydroxypropylcellulose) (HPC)
[13] = dose: 25.0 mg/kg/injection, schedule: Q01DX009 (ip), vehicle: saline with Tween-80

Measured: T/C

CC[C@@]1(O)C(=O)OCc2c1cc1n(c2=O)Cc2cc3cc(O)ccc3nc2-1
inactive: dose: 8.0 mg/kg/injection, schedule: Q04DX003 (ip), vehicle: other 101 % of control
active: dose: 0.5 mg/kg/injection, schedule: Q04DX003 (ip), vehicle: other 160 % of control and 229 % of control | dose: 0.79 mg/kg/injection, schedule: Q04DX003 (ip), vehicle: other 165 % of control | dose: 1.0 mg/kg/injection, schedule: Q04DX003 (ip), vehicle: other 166 % of control and 192 % of control | dose: 1.57 mg/kg/injection, schedule: Q04DX003 (ip), vehicle: other 199 % of control | dose: 2.0 mg/kg/injection, schedule: Q04DX003 (ip), vehicle: other 229 % of control | dose: 3.13 mg/kg/injection, schedule: Q04DX003 (ip), vehicle: other 295 % of control | dose: 4.0 mg/kg/injection, schedule: Q04DX003 (ip), vehicle: other 284 % of control and 314 % of control

COC(=O)C1=CO[C@@H](O)[C@@H]2C(C)OC(=O)C[C@H]12 (stereo partly specified)
inactive: dose: 60.0 mg/kg/injection, schedule: Q01DX005 (ip), vehicle: saline 104 % of control | dose: 120.0 mg/kg/injection, schedule: Q01DX005 (ip), vehicle: saline 104 % of control | dose: 240.0 mg/kg/injection, schedule: Q01DX005 (ip), vehicle: saline 109 % of control

O=C1NC(O)c2cc([N+](=O)[O-])ccc2O1 (stereo unspecified)
inactive: [1] 100 % of control and 107 % of control | [2] 102 % of control and 115 % of control | [3] 100 % of control and 120 % of control

COC1OC(CO)C(O)C(O)C1NC(C)=O (stereo unspecified)
inactive: [1] 99 % of control | [2] 100 % of control | [3] 104 % of control

C[Si](Cl)(CCl)CCl
inactive: [4] 118 % of control | [5] 116 % of control | dose: 200.0 mg/kg/injection, schedule: Q01DX009 (ip), vehicle: saline with Tween-80 118 % of control

COc1cc2cccnc2c2[nH]c(=O)c3c(c12)CCC3
inactive: [6] 101 % of control | [7] 99 % of control

COc1cc2c(cc1OC)C1C(CO)c3ccc(OC)c(OC)c3CN1CC2 (stereo unspecified)
inactive: [8] 96 % of control | [9] 93 % of control | dose: 200.0 mg/kg/injection, schedule: Q04DX003 (ip), vehicle: distilled water + Tween-80 87 % of control | dose: 400.0 mg/kg/injection, schedule: Q04DX003 (ip), vehicle: distilled water + Tween-80 91 % of control

CCCNS(=O)(=O)c1ccccc1C(=O)NC1CCCCC1
inactive: [10] 103 % of control | [11] 93 % of control | [12] 94 % of control

O=C(O)c1cc(Cc2c[nH]c(=O)[nH]c2=O)ccc1O
inactive: dose: 25.0 mg/kg/injection, schedule: Q01DX005 (ip), vehicle: saline with Tween-80 111 % of control | [1] 111 % of control | [2] 101 % of control

N#CCCN(N)S(=O)(=O)c1ccccc1
inactive: [10] 99 % of control | [11] 99 % of control | [12] 98 % of control

C=C(C1=CC(=O)C(C)=C(OC(=O)C2(C)OC2C)C1=O)C(CC=C(C)C)OC(=O)/C(C)=C/C (stereo unspecified)
inactive: dose: 1.56 mg/kg/injection, schedule: Q01DX005 (ip), vehicle: Klucel (hydroxypropylcellulose) (HPC) 97 % of control | dose: 3.12 mg/kg/injection, schedule: Q01DX005 (ip), vehicle: Klucel (hydroxypropylcellulose) (HPC) 97 % of control | dose: 6.25 mg/kg/injection, schedule: Q01DX005 (ip), vehicle: Klucel (hydroxypropylcellulose) (HPC) 99 % of control | dose: 12.5 mg/kg/injection, schedule: Q01DX005 (ip), vehicle: Klucel (hydroxypropylcellulose) (HPC) 99 % of control | dose: 25.0 mg/kg/injection, schedule: Q01DX005 (ip), vehicle: Klucel (hydroxypropylcellulose) (HPC) 99 % of control

CC(=O)N(C)N=NCCCl
active: dose: 13.12 mg/kg/injection, schedule: Q01DX005 (ip), vehicle: saline with Tween-80 157 % of control | dose: 26.15 mg/kg/injection, schedule: Q01DX005 (ip), vehicle: saline with Tween-80 217 % of control | dose: 52.5 mg/kg/injection, schedule: Q01DX005 (ip), vehicle: saline with Tween-80 257 % of control | dose: 105.0 mg/kg/injection, schedule: Q01DX005 (ip), vehicle: saline with Tween-80 171 % of control

Cn1c(=O)c2c(nc(Br)n2CC(=O)c2ccc([N+](=O)[O-])cc2)n(C)c1=O
inactive: [6] 95 % of control | [7] 96 % of control | dose: 400.0 mg/kg/injection, schedule: Q04DX003 (ip), vehicle: saline 99 % of control

CC(=O)C(C=O)C(C)=O.CC(=O)CC(C)=O.CC(=O)CC(C)=O.[Ru]
inactive: dose: 15.0 mg/kg/injection, schedule: Q01DX005 (ip), vehicle: saline with Tween-80 100 % of control | dose: 30.0 mg/kg/injection, schedule: Q01DX005 (ip), vehicle: saline with Tween-80 102 % of control | dose: 60.0 mg/kg/injection, schedule: Q01DX005 (ip), vehicle: saline with Tween-80 104 % of control and 109 % of control

CCCCCC(O)C1C(=O)OC(C)C(O)/C=C/C=C/C=C/C=C\C=C(\C)C(O)CC(O)CC(O)CC(O)CC(O)CC(O)CC1O (stereo unspecified)
inactive: dose: 10.0 mg/kg/injection, schedule: Q04DX003 (ip), vehicle: other 104 % of control | dose: 20.0 mg/kg/injection, schedule: Q04DX003 (ip), vehicle: other 95 % of control | [1] 108 % of control | [2] 107 % of control | [3] 103 % of control

CCOC(=O)c1cc(N(CCCl)CCCl)ccc1OC(=O)CC
inactive: dose: 50.0 mg/kg/injection, schedule: Q04DX003 (ip), vehicle: Klucel (hydroxypropylcellulose) (HPC) 100 % of control | dose: 100.0 mg/kg/injection, schedule: Q04DX003 (ip), vehicle: Klucel (hydroxypropylcellulose) (HPC) 100 % of control | dose: 200.0 mg/kg/injection, schedule: Q04DX003 (ip), vehicle: Klucel (hydroxypropylcellulose) (HPC) 97 % of control

CCOC(=O)C(C)(Br)C(=O)OCC
inactive: [13] 118 % of control | [4] 109 % of control | [5] 109 % of control

COc1cccc2c1C(=O)c1c(O)c3c(c(O)c1C2=O)C[C@@](O)(C(C)=O)C[C@@H]3OC1CC(N=C(N)CCSSCCC(N)=NC2CC(O[C@H]3C[C@](O)(C(C)=O)Cc4c(O)c5c(c(O)c43)C(=O)c3c(OC)cccc3C5=O)OC(C)C2O)C(O)C(C)O1 (stereo partly specified)
inactive: dose: 3.12 mg/kg/injection, schedule: Q04DX003 (ip), vehicle: distilled water + Tween-80 115 % of control | dose: 6.25 mg/kg/injection, schedule: Q04DX003 (ip), vehicle: distilled water + Tween-80 108 % of control and 122 % of control | dose: 12.5 mg/kg/injection, schedule: Q04DX003 (ip), vehicle: distilled water + Tween-80 118 % of control | dose: 25.0 mg/kg/injection, schedule: Q04DX003 (ip), vehicle: distilled water + Tween-80 116 % of control | [8] 105 % of control | [9] 121 % of control

COC(=O)c1ccc2c(c1)C(NC(C)=O)CCc1cc(OC)c(OC)c(OC)c1-2 (stereo unspecified)
inactive: dose: 0.25 mg/kg/injection, schedule: Q01DX005 (ip), vehicle: saline 106 % of control | dose: 0.5 mg/kg/injection, schedule: Q01DX005 (ip), vehicle: saline 99 % of control | dose: 1.0 mg/kg/injection, schedule: Q01DX005 (ip), vehicle: saline 101 % of control | dose: 2.0 mg/kg/injection, schedule: Q01DX005 (ip), vehicle: saline 106 % of control | dose: 4.0 mg/kg/injection, schedule: Q01DX005 (ip), vehicle: saline 114 % of control

O=C1O/C(=C(/C(=O)O)c2ccc(O)cc2)C(O)=C1c1cc2c3c(c(O)cc(C4=C(O)/C(=C(\C(=O)O)c5ccc(O)cc5)OC4=O)c3c1)OC2=O
inactive: dose: 10.25 mg/kg/injection, schedule: Q01DX005 (ip), vehicle: DMSO 94 % of control | dose: 12.0 mg/kg/injection, schedule: Q01DX005 (ip), vehicle: DMSO 98 % of control | dose: 20.5 mg/kg/injection, schedule: Q01DX005 (ip), vehicle: DMSO 110 % of control | dose: 24.0 mg/kg/injection, schedule: Q01DX005 (ip), vehicle: DMSO 106 % of control | dose: 41.0 mg/kg/injection, schedule: Q01DX005 (ip), vehicle: DMSO 106 % of control

COc1cc2cc(-c3ccc(OC(C)C)c(OC)c3)[n+](C)cc2cc1OC
inactive: dose: 100.0 mg/kg/injection, schedule: Q01DX001 (ip), vehicle: saline with Tween-80 100 % of control | dose: 200.0 mg/kg/injection, schedule: Q01DX001 (ip), vehicle: saline with Tween-80 94 % of control

Nc1cn(C2OC(CO)C(O)C2O)c(=O)[nH]c1=O (stereo unspecified)
inactive: [13] 95 % of control | [4] 92 % of control
